According to a melting point compilation (Tetko et al.; mined from patent text by program, amines drawn as free bases though some values may be those of a salt):

Row | Compound | melting point [°C]
1 | Cc1nc2ccc(F)cc2c(=O)n1C1CCC(=O)NC1=O (stereo unspecified) | 273 to 275
2 | CN(C)C1CCN2CCc3ccccc3C2(c2ccc(F)cc2)C1 (stereo unspecified) | 159 to 167
3 | CC(C)CCOc1c(-c2ccc(S(C)(=O)=O)cc2)cnn(C(C)(C)C)c1=O | 138 to 139
4 | CS(=O)(=O)C(=C1CN(C(c2ccccc2)c2ccccc2)C1)c1ccc2ccccc2c1 | 178
5 | COCCNS(=O)(=O)c1ccc(Nc2nccc(-c3sc(-c4cccnc4)nc3C)n2)cc1 | 252 to 254
6 | COC(=O)C=C(C)NCC(O)CO (stereo unspecified) | 109 to 111
7 | COc1ccc(OC)c(/C=C/C(=O)/C=C/C(=O)O)c1 | 145 to 146
8 | COc1ccc2c(c1)[nH]c1c(C)c(OS(=O)(=O)c3cccc4c(N(C)C)cccc34)ccc12 | 174
9 | O=C1CC(SSSSC2CC(=O)NC2=O)C(=O)N1 (stereo unspecified) | 108 to 114
10 | Cc1cc(NC(=O)c2cc(Cl)cc(C)n2)ccn1 | 162
11 | Cc1cccc(COc2cccc(OCc3cnc4ccccc4n3)c2)c1C(=O)O | 57 to 60
12 | O=C(NCCCCOc1ccc(-n2ccnc2)cc1)c1ccc(I)cc1 | 143 to 145
13 | O=C(O)c1cn(-c2cccs2)c2cc(F)c(F)cc2c1=O | 245 to 246
14 | N#Cc1cnc2c(c1Nc1cccc(Br)c1)C=C1N=CN=C1C2 | 286 to 288
15 | COc1ccc(C=O)cc1NC(=O)OCC1c2ccccc2-c2ccccc21 | 139 to 142
16 | CCOC1COCC1Oc1cc(C(=O)Nc2c(Cl)cncc2Cl)ccc1OC (stereo unspecified) | 171 to 173
17 | CCc1ccc(Nc2nc3cc(NC(=O)c4ccc(Cl)cc4)ccc3o2)cc1 | > 250
18 | O=C(c1cccnc1)N1CCC(c2ccccc2[N+](=O)[O-])=N1 | 123 to 125
19 | O=C(O)c1ccc(OCC2CCCCC2)cc1 | 209 to 210
20 | CC(C)Cn1c(CCl)c(-c2ccccc2)c2cc(Br)ccc2c1=O | 145 to 146
21 | CC(C)(C)OC(=O)N1CCN(CCc2ccc(F)cc2)CC1 | 68 to 70

Row | Compound | melting point [°C]
22 | C=CCC(O)(Cn1cncn1)c1ccc(Cl)cc1Cl (stereo unspecified) | 101
23 | C[C@@H](Cn1ncc2ccc(O)c(C=O)c21)NC(=O)OCc1ccccc1 | 135 to 137
24 | OC(COCc1cccnc1)c1ccc2occc2c1 (stereo unspecified) | 85 to 86
25 | CC1=CC(C)(C)Nc2cc3oc(=O)cc(C)c3cc21 | 270 to 274
26 | O=C(O)c1cc(OCCCOc2ccc(O)cc2)cc(OCCCOc2ccc(O)cc2)c1 | 160 to 162
27 | COc1ccc(CN2C=CC=C3C2=Nc2cc(OC)ccc2S(=O)(=O)N3C)cc1 | 179 to 180
28 | O=C1CN(C(=O)Cl)C(c2ccccc2)c2cc(Cl)ccc2N1 (stereo unspecified) | 181 to 184
29 | CC(=O)OCC(C)(C(=O)OC(C)(C)C)C(=O)c1ccccc1 (stereo unspecified) | 95 to 97
30 | CCOCc1nc2cnc3cc(O)ccc3c2n1CC1COC(C)(C)O1 (stereo unspecified) | 239 to 240
31 | Cc1nc(-n2ccc(COc3ccccc3)cc2=O)sc1C(=O)NCc1ccccc1 | 175 to 177
32 | Cc1ccccc1C(=O)N1CCC(=NO)c2ccc(Cl)cc21 | 166 to 168
33 | CNC1=NS(=O)(=O)N=C(Oc2ccccc2[N+](=O)[O-])N1C(C)C | 242
34 | CP(=O)(O)C[C@@H](O)CN | 221 to 222
35 | CC(C)(C)C1=C(C#N)C(c2cccc(C#N)c2Br)c2c[nH]nc2N1 (stereo unspecified) | 251
36 | O=C1COc2ccc(C3=Nc4cc(Cl)ccc4SC3c3ccccc3)cc2N1 (stereo unspecified) | 234 to 236
37 | CCN(CC)CC(=O)N1CCn2c(c(-c3ccccc3)c3cc(Cl)ccc32)C1 | 117 to 119
38 | CN(CCc1cccc(OCc2ccccc2)c1)c1cnc(-c2ccccc2)c(-c2ccccc2)n1 | 78 to 78.5
39 | COC(=O)CCCCC(O)c1ccc(CCc2ccccc2)cc1 (stereo unspecified) | 56 to 58
40 | C#CCCOc1cc(N2C(=O)CC(C(F)(F)F)CC2=O)c(F)cc1Cl | 89 to 91
41 | COc1ccc(Br)c(C=O)c1O | 102 to 103
